Measurements as given in patent US9765092B2, “Tricyclic piperidine compounds” (ACTELION PHARMACEUTICALS LTD, priority 2013, dated 2017).

Biological target: human TPH1 (Homo sapiens (Human), UniProt P17752)
Assay: Biochemical in vitro assay using fluorescence readout (TPH1 inhibition)
Description: Biochemical In Vitro Assay Using Fluorescence Readout
To generate the enzyme, full length human TPH1 is cloned into the plasmid pET20b(+) (Novagen) and expressed in E. coli. The bacterial cells are ruptured by sonication on ice and the lysate is cleared by centrifugation. The resulting protein in the pellet is re-extracted and TPH1 is purified from the obtained lysate by affinity chromatography using a pterin cosubstrate analog immobilized to the resin of the column. The protein is further purified by size exclusion chromatography to remove protein aggregates. The activity of TPH1 is determined by using a fluorescence assay. The enzyme activity assay is carried out at 15° C. with atmosphere oxygen for the duration of 60 minutes in a volume of 64 μl. The reaction is carried out in a 0.1 M Tris-HCl buffer, adjusted to pH 7.6, containing 1 mM DTT, 0.2 mg/mL catalase, 100 μM (±)-6-methyl-5,6,7,8-tetrahydropterine dihydrochloride, 40 μM L-tryptophan, and 40-80 nM of TPH1. The reaction is started by bringing together L-tryptophan with all the other reaction substituents and stopped by quenching with perchloric acid (HClO4). The amount of 5-hydroxy-L-tryptophan produced during the enzymatic reaction is determined by fluorescence readout. Fluorescence, as determined at 540 nm when excited at 300 nm wavelength, increases proportionally to the 5-hydroxy-L-tryptophan formed. Compounds are prepared as 10 mM stock solution in DMSO, then diluted in 384-well plates using DMSO followed by a transfer of the dilutions into the assay plate. Fluorescence is measured for each well and the fluorescence at 540 nm wavelength is compared to the fluorescence of the vehicle in place of compound. Inhibitory activities of example compounds with respect to the TPH1 protein are determined by calculating the IC50 value (the concentration of compound needed to inhibit 50% of the enzyme activity). The calculated IC50 values may fluctuate depending on the daily biochemical assay performance. Fluctuations of this kind are known to those skilled in the art.

[1] = human TPH1, fluorescence readout
[2] = full length human TPH1, 40 μM L-tryptophan, 15° C., 60 minutes, fluorescence at 540 nm, mean if determined several times

Chain of human TPH1 (P17752 whole entry): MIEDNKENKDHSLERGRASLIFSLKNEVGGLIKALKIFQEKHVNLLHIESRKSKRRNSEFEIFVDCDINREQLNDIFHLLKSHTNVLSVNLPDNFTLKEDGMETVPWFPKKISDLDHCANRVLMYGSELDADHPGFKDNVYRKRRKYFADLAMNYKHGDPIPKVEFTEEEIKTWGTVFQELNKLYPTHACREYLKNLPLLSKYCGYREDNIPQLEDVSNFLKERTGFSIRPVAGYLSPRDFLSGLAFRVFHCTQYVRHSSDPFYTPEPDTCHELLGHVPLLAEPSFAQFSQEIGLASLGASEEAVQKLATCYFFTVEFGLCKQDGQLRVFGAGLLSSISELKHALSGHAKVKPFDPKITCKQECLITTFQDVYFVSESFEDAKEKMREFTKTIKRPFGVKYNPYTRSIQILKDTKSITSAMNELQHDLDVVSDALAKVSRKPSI

| Molecule | IC50 [1] | IC50 [2] |
| --- | --- | --- |
| 1-(5-(4-chloro-2-fluorophenyl)-7,8-dihydrothiazolo[2′,3′:2,3]imidazo[4,5-c]pyridin-6(5H)-yl)-2-(2-ethyl-4-fluorophenoxy)ethanone [Example 6.4.1] | 14 nM |  |
| 2-(4-(aminomethyl)-2-chlorophenoxy)-1-(5-(3-fluorothiophen-2-yl)-2-methyl-7,8-dihydro-[1,3,4]thiadiazolo[2′,3′:2,3]imidazo[4,5-c]pyridin-6(5H)-yl)ethanone [Example 1.23.7] | 38 nM |  |
| 2-((2-chloro-6-morpholinopyridin-3-yl)oxy)-1-(5-(4-(2-hydroxypropan-2-yl)thiophen-2-yl)-2-methyl-7,8-dihydro-[1,3,4]thiadiazolo[2′,3′:2,3]imidazo[4,5-c]pyridin-6(5H)-yl)ethanone [Example 1.19.1] | 6 nM |  |
| 5-(2-(5-(4-(aminomethyl)-2-fluorophenyl)-2-methyl-7,8-dihydro-[1,3,4]thiadiazolo[2′,3′:2,3]imidazo[4,5-c]pyridin-6(5H)-yl)-2-oxoethoxy)-6-chloro-N-cyclopropylpicolinamide [Example 1.78.2] | 18 nM |  |
| COc1ccc(C2c3c(nc4sc(C)nn34)CCN2C(=O)COc2ccc3ccccc3c2)cc1OC (centres unmarked) [Example 1.1.1, 1-(5-(3,4-dimethoxyphenyl)-2-methyl-7,8-dihydro-[1,3,4]thiadiazolo[2′,3′:2,3]imidazo[4,5-c]pyridin-6(5H)-yl)-2-(naphthalen-2-yloxy)ethanone] | 10 nM |  |
| Cc1nn2c3c(nc2s1)CCN(C(=O)COc1ccc(CN2CCOCC2)nc1Cl)C3c1cccnc1F (centres unmarked) [Example 1.2.1, 2-((2-chloro-6-(morpholinomethyl)pyridin-3-yl)oxy)-1-(5-(2-fluoropyridin-3-yl)-2-methyl-7,8-dihydro-[1,3,4]thiadiazolo[2′,3′:2,3]imidazo[4,5-c]pyridine-6(5H)yl) ethanone] | 208 nM |  |
| COc1ccc(C2c3c(nc4sc(C)nn34)CCN2C(=O)COc2ccc(CN3CCOCC3)nc2Cl)c(F)c1 (centres unmarked) [Example 1.3.2, 2-((2-chloro-6-(morpholinomethyl)pyridin-3-yl)oxy)-1-(5-(2-fluoro-4-methoxyphenyl)-2-methyl-7,8-dihydro-[1,3,4]thiadiazolo[2′,3′:2,3]imidazo[4,5-c]pyridin-6(5H)-yl)ethanone] | 9 nM |  |
| COc1ccc(C2c3c(nc4sc(C)nn34)CCN2C(=O)COc2ccc(C(=O)NC3CC3)nc2Cl)c(F)c1 (centres unmarked) [Example 1.3.3, 6-chloro-N-cyclopropyl-5-(2-(5-(2-fluoro-4-methoxyphenyl)-2-methyl-7,8-dihydro-[1,3,4]thiadiazolo[2′,3′:2,3]imidazo[4,5-c]pyridin-6(5H)-yl)-2-oxoethoxy)picolinamide] | 10 nM |  |
| COc1ccc(C2c3c(nc4sc(C)nn34)CCN2C(=O)COc2ccc(NS(C)(=O)=O)nc2Cl)c(F)c1 (centres unmarked) [Example 1.3.4, N-(6-chloro-5-(2-(5-(2-fluoro-4-methoxyphenyl)-2-methyl-7,8-dihydro-[1,3,4]thiadiazolo[2′,3′:2,3]imidazo[4,5-c]pyridin-6(5H)-yl)-2-oxoethoxy)pyridin-2-yl)methanesulfonamide] | 8 nM |  |
| Cc1nn2c3c(nc2s1)CCN(C(=O)COc1ccc(CN2CCOCC2)nc1Cl)C3c1ccc(Cl)cc1F (centres unmarked) [Example 1.4.1, 1-(5-(4-chloro-2-fluorophenyl)-2-methyl-7,8-dihydro-[1,3,4]thiadiazolo[2′,3′:2,3]imidazo[4,5-c]pyridin-6(5H)-yl)-2-((2-chloro-6-(morpholinomethyl)pyridin-3-yl)oxy)ethanone] | 9 nM |  |
| CCc1nc(C)ccc1OCC(=O)N1CCc2nc3sc(C)nn3c2C1c1ccc(Cl)cc1F (centres unmarked) [Example 1.4.2, 1-(5-(4-chloro-2-fluorophenyl)-2-methyl-7,8-dihydro-[1,3,4]thiadiazolo[2′,3′:2,3]imidazo[4,5-c]pyridin-6(5H)-yl)-2-((2-ethyl-6-methylpyridin-3-yl)oxy)ethanone] | 13 nM |  |
| Cc1nn2c3c(nc2s1)CCN(C(=O)COc1ccc(N2CCOCC2)cc1Cl)C3c1ccc(Cl)cc1F (centres unmarked) [Example 1.4.3, 1-(5-(4-chloro-2-fluorophenyl)-2-methyl-7,8-dihydro-[1,3,4]thiadiazolo[2′,3′:2,3]imidazo[4,5-c]pyridin-6(5H)-yl)-2-(2-chloro-4-morpholinophenoxy)ethanone] | 4 nM |  |
| CCc1ncccc1OCC(=O)N1CCc2nc3sc(C)nn3c2C1c1ccc(Cl)cc1F (centres unmarked) [Example 1.4.5, 1-(5-(4-chloro-2-fluorophenyl)-2-methyl-7,8-dihydro-[1,3,4]thiadiazolo[2′,3′:2,3]imidazo[4,5-c]pyridin-6(5H)-yl)-2-((2-ethylpyridin-3-yl)oxy)ethanone] | 13 nM |  |
| CCc1nc(C(F)F)ccc1OCC(=O)N1CCc2nc3sc(C)nn3c2C1c1ccc(Cl)cc1F (centres unmarked) [Example 1.4.6, 1-(5-(4-chloro-2-fluorophenyl)-2-methyl-7,8-dihydro-[1,3,4]thiadiazolo[2′,3′:2,3]imidazo[4,5-c]pyridin-6(5H)-yl)-2-((6-(difluoromethyl)-2-ethylpyridin-3-yl)oxy)ethanone] | 11 nM |  |
| Cc1nn2c3c(nc2s1)CCN(C(=O)COc1ccc(N(C)C)nc1Cl)C3c1ccc(Cl)cc1F (centres unmarked) [Example 1.4.7, 1-(5-(4-chloro-2-fluorophenyl)-2-methyl-7,8-dihydro-[1,3,4]thiadiazolo[2′,3′:2,3]imidazo[4,5-c]pyridin-6(5H)-yl)-2-((2-chloro-6-(dimethylamino)pyridin-3-yl)oxy)ethanone] | 6 nM |  |
| COC(=O)c1ccc(OCC(=O)N2CCc3nc4sc(C)nn4c3C2c2ccc(Cl)cc2F)c(Cl)n1 (centres unmarked) [Example 1.4.8, Methyl 6-chloro-5-(2-(5-(4-chloro-2-fluorophenyl)-2-methyl-7,8-dihydro-[1,3,4]thiadiazolo[2′,3′:2,3]imidazo[4,5-c]pyridin-6(5H)-yl)-2-oxoethoxy)picolinate] | 32 nM |  |
| Cc1nn2c3c(nc2s1)CCN(C(=O)COc1ccc(C#N)nc1Cl)C3c1ccc(Cl)cc1F (centres unmarked) [Example 1.4.9, 6-chloro-5-(2-(5-(4-chloro-2-fluorophenyl)-2-methyl-7,8-dihydro-[1,3,4]thiadiazolo[2′,3′:2,3]imidazo[4,5-c]pyridin-6(5H)-yl)-2-oxoethoxy)picolinonitrile] | 36 nM |  |
| Cc1nn2c3c(nc2s1)CCN(C(=O)COc1ccc(I)nc1Cl)C3c1ccc(Cl)cc1F (centres unmarked) [Example 1.4.10, 1-(5-(4-chloro-2-fluorophenyl)-2-methyl-7,8-dihydro-[1,3,4]thiadiazolo[2′,3′:2,3]imidazo[4,5-c]pyridin-6(5H)-yl)-2-((2-chloro-6-iodopyridin-3-yl)oxy)ethanone] | 8 nM |  |
| COC(=O)CCS(=O)(=O)c1ccc(OCC(=O)N2CCc3nc4sc(C)nn4c3C2c2ccc(Cl)cc2F)c(Cl)n1 (centres unmarked) [Example 1.4.11, Methyl 3-((6-chloro-5-(2-(5-(4-chloro-2-fluorophenyl)-2-methyl-7,8-dihydro-[1,3,4]thiadiazolo[2′,3′:2,3]imidazo[4,5-c]pyridin-6(5H)-yl)-2-oxoethoxy)pyridin-2-yl)sulfonyl)propanoate] |  | 57 nM |
| Cc1nn2c3c(nc2s1)CCN(C(=O)COc1ccc(S(N)(=O)=O)nc1Cl)C3c1ccc(Cl)cc1F (centres unmarked) [Example 1.4.12, 6-Chloro-5-(2-(5-(4-chloro-2-fluorophenyl)-2-methyl-7,8-dihydro-[1,3,4]thiadiazolo[2′,3′:2,3]imidazo[4,5-c]pyridin-6(5H)-yl)-2-oxoethoxy)pyridine-2-sulfonamide] |  | 57 nM |
| Cc1nn2c3c(nc2s1)CCN(C(=O)COc1ccc(N(C)CCO)nc1Cl)C3c1ccc(Cl)cc1F (centres unmarked) [Example 1.4.13, 1-(5-(4-Chloro-2-fluorophenyl)-2-methyl-7,8-dihydro-[1,3,4]thiadiazolo[2′,3′:2,3]imidazo[4,5-c]pyridin-6(5H)-yl)-2-((2-chloro-6-((2-hydroxyethyl)-(methyl)amino)pyridin-3-yl)oxy)ethanone] |  | 5 nM |
| COCCN(C)c1ccc(OCC(=O)N2CCc3nc4sc(C)nn4c3C2c2ccc(Cl)cc2F)c(Cl)n1 (centres unmarked) [Example 1.4.14, 1-(5-(4-Chloro-2-fluorophenyl)-2-methyl-7,8-dihydro-[1,3,4]thiadiazolo[2′,3′:2,3]imidazo[4,5-c]pyridin-6(5H)-yl)-2-((2-chloro-6-((2-methoxyethyl)(methyl)-amino)pyridin-3-yl)oxy)ethanone] |  | 3 nM |
| Cc1nn2c3c(nc2s1)CCN(C(=O)COc1ccc(N2C(C)CCC2C)nc1Cl)C3c1ccc(Cl)cc1F (centres unmarked) [Example 1.4.15, 1-(5-(4-chloro-2-fluorophenyl)-2-methyl-7,8-dihydro-[1,3,4]thiadiazolo[2′,3′:2,3]imidazo[4,5-c]pyridin-6(5H)-yl)-2-((2-chloro-6-(2,5-dimethylpyrrolidin-1-yl)pyridin-3-yl)oxy)ethanone] |  | 6 nM |
